These results are taken from PMC5458179, “Oxidative DNA double strand breaks and autophagy in the antitumor effect of sterically hindered platinum(II) complexes in NSCLCs” (Oncotarget, 2017).

What all share (format): cell-based, human
The test system of one assay is A549 cells. Nature of the assay: Autophagy by acridine orange flow cytometry (AVOs). Here is the method:
The role of complex 3-induced autophagy in cell death was further analyzed (Figure 6). When A549 cancer cells were treated with complex 3 of 10 μM, the protein expression of LC3-II was increased (Figure 6A). […] Treatment with complex 3 for 24 h caused a 4.5-folds increase in cells undergoing autophagy (Figure 6C). […] Moreover, Bax and Bcl-2 expressions were measured by western blot analysis of whole cell lysates.
To investigate the role of ROS in complex 3-induced cell death, the level of intracellular H2O2 was measured. […] Exposure of A549 cells to NAC reduced levels of LC3-II from 2.3- to 1.5-folds (Figure 8B). […] In parallel, the complex 3-induced increase ratio of Bax/Bcl-2 was suppressed by NAC (Figure 8E).
Flow cytometry with acridine orange staining as described in a previous study was used to detect and quantify the AVOs, one of the characteristicsof autophagy. At the end of individual experiments, A549 cells were collected in phenol red-free RPMI 1640 medium. Green (FL-1) and red (FL-3) fluorescences of acridine orange were measured using a flow cytometer and CellQuest software (Becton Dickinson, San Jose, CA). The sum of the upper-left and upper-right quadrants of the cytogram was used to estimate the percentage of cells undergoing autophagy.
On the technique in general: A flow cytometer gives signals particle by particle.

The next assay has as its system HCT-116. Nature of the assay: MTT cytotoxicity assay. As to conditions: 48 h drug exposure. Here is the method:
(§1) The results reveal that the steric hindrance plays a significant role in the cytotoxicity of complex 3.
(§2) Human cancer cell lines HepG2, SGC-7901, HCT-116, A549, NCI-H1299 and MCF-7 as well as normal liver cell line L02 were purchased from the Cell Bank of Shanghai Institute of Cell Biology. Among them, MCF-7, HepG2 cells were cultured at 37 °C in 5% CO2 with DMEM supplemented with 10% fetal bovine serum (FBS) (Hyclone, Lifescience, USA) and 1% penicillin/streptomycin (Beyotime, Nantong, China), while HCT-116, SGC-7901, A549, NCI-H1299 and L02 cells were cultured at 37 °C in 5% CO2 with RPMI-1640 supplemented with 10% FBS and 1% penicillin/streptomycin. Cells were passed every 2 days and restarted from frozen stocks upon reaching pass number 20.
(§3) In vitro cytotoxicity of the platinum compounds against human hepatocellular carcinoma (HepG-2), gastric carcinoma (SGC-7901), non-small-cell lung cancer (A549), and colorectal cancer (HCT-116) cell lines were measured by the MTT assays. Briefly, the cells were seeded in 96-well cultured plates at a density of 5000 cells/well. After overnight incubation (16 h), the cells were treated with the platinum complexes. After 48 h of incubation, 10 μL of a freshly diluted 3-(4,5-dimethyl-2-thiazolyl)-2,5-diphenyl-2H-tetrazolium bromide (MTT) solution (5 mg/mL) were added to each well and the plates were incubated at 37 °C in a humidified 5% CO2 atmosphere for 4 h. At the end of the incubation period the medium was removed and the formazan product was dissolved in 150 μL of DMSO. The cell viability was evaluated by measurement of the absorbance at 490 nm, using an Absorbance Reader (BioRad). IC50 values (compound concentration that produces 50% of cell growth inhibition) were calculated from curves constructed by plotting cell survival inhibitory rate (%) versus drug concentration logarithm. All experiments were repeated in three times. The reading values were converted to the percentage of control (% cell survival). Cytotoxic effects were expressed as IC50 values.

The next assay deals with HepG2. As to the kind of experiment: MTT cytotoxicity assay. As to conditions: 48 h drug exposure. How it is done: as §1, §2, §3
A general note: Formazan colour is commonly taken as a measure of viable cells.

A further assay deals with SGC-7901. Nature of the assay: MTT cytotoxicity assay. As to conditions: 48 h drug exposure. Here is the method: as §1, §2, §3
In the next assay the test system is caspase-3. As to the kind of experiment: Caspase-3 activation analysis. As to conditions: A549 and NCI-H1299, 10 μM, 24 h. How it is done: For the quantification of activation of caspase-3 in cancer cells, 5 × 10^5 cancer cells were seeded in a 60 mm dish and allowed to adhere for 1 day. […] As a reference control, the cells were only incubated with fresh media at 37°C. Then, the cells were washed with PBS to eliminate the remaining drugs and harvested using trypsin-EDTA. All the groups of cells were collected into microtubes following incubation with […] media containing […] of FITC-DEVD-FMK (Caspase 3(active) FITC Staining Kit (ab65613)) for 1 h at 37°C under 5% CO2. Subsequently, centrifugation of the cells was performed to collect cell pellets and washed 2 times with washing buffer. Each group of cells was resuspended with […] of the washing buffer and transferred […] per well in a microtiter plate reader. The quantification of caspase-3 was evaluated as Relative Fluorescence Unit(RFU) using Fluorophotometer (Max Gemini EM, SoftMax® Pro 5, Molecular Devices Corp., Sunnyvale, CA) at an emission wavelength of 535 nm after excitation at 485 nm. The statistical significance was evaluated with one-way ANOVA test using Graph Pad Prism 4 software.

Another assay has as its system NCI-H1299 cancer cells. Nature of the assay: Intracellular ATP production. As to conditions: NCI-H1299, 10 μM, 12 h. Here is the method: (§4) Since ATP production is a significant consequence attributed to the dysfunction of mitochondrial energy production, we measured intracellular ATP levels after complex 3 treatment.
(§5) The ATP production assay kit (Haimen, Jiangsu, China) was used to measure intracellular ATP level according to the manufacturer's instructions. […] Detection was performed using the luminometer Orion II (Berthold DS, Bleichstr, Pforzheim, Germany).

In a further assay the test system is A549 cancer cells. As to the kind of experiment: Intracellular ATP production. As to conditions: A549, 10 μM, 12 h. Here is the method: as §4, §5
For assay [1], the system named is A549 and NCI-H1299 cancer cells. Nature of the assay: ROS measurement (DCF fluorescence). As to conditions: A549 and NCI-H1299, 10 μM. Here is the method:
As excessive ROS generation is associated with cell-killing activity, we further examined whether complex 3 could also induce the formation of excessive ROS in A549 and NCI-H1299 cancer cells.
The generation of ROS induced by complex 3 was determined with the cell permeant fluorogenic probe 2′,7′-dichlorodihydrofluorescein diacetate (H2DCFDA; Molecular Probes, Invitrogen, Darmstadt, Germany) as described. H2DCFDA diffuses into the cell, where it is enzymatically converted by intracellular esterases and oxidized into the high fluorescence compound DCF, which allows the determination of H2O2, peroxynitrite anions and peroxyl radicals. Approximately 4×10^3 A549 and NCI-H1299 cancer cells per well were plated on white bottom 96-well plates in extracellular fluid ([…] NaCl, 3 mM KCl, 1 mM CaCl2, 1 mM MgCl2, 10 mM HEPES and 25 mM glucose; pH 7.4). […] Then, cells were loaded with […] H2DCFDA for 30 min at 37°C and 5% CO2. Then, cells DCF generation was measured over time using a fluorometer (Fluostar BMG Labtech, Offenburg, Germany) at 492 nm excitation and 520 nm emission.

One may read the IC50 as the concentration that inhibits the measured activity by half.

With `CC(C)C[NH+]1[C@@H]2CCCC[C@H]2[NH+](CC(C)C)[Pt-2]12[O]C(=O)CC(=O)[O]2` (stereo partly shown) [Complex 3], the percentage of autophagy in the assay with A549 cells (A549, 10 μM complex 18 h, without NAC) is 42.5%; in the assay with A549 cells (A549, 5 mM NAC 2 h pretreatment then 10 μM complex 18 h) it was 11.8%. Also, in the assay with A549 cells (A549, 10 μM, 24 h), the “increase in cells undergoing autophagy” value was 4.5 folds. Further, the IC50 turned out to be 38.6 ± 2.67 µM with HCT-116, 52.9 ± 4.37 µM with HepG2 and 38.6 ± 2.49 µM in the assay on SGC-7901. In addition, the caspase-3 activity result with caspase-3 is “high degree of caspase-3 activity compared to oxaliplatin”. Moreover, the “ATP level, % of untreated cells” value with NCI-H1299 cancer cells is reported as 31.89%; in the assay on A549 cancer cells, 19.95%. For the same compound, the ROS production entry in assay [1] is “induced the production of significant amounts of ROS”.
Regarding `O=C1[O][Pt]2([NH][C@@H]3CCCC[C@H]3[NH]2)[O]C1=O` [Oxaliplatin, oxaliplatin, reference compound], the half-maximal inhibitory concentration (IC50) in the assay on HCT-116 turned out to be 19.1 ± 1.89 µM; in the assay with HepG2 it was 16.6 ± 0.56 µM; in the assay on SGC-7901, 24.2 ± 0.35 µM.
